From ChEMBL document CHEMBL4052645, “Discovery of potent and efficacious pyrrolopyridazines as dual JAK1/3 inhibitors” (Bioorg Med Chem Lett, 2017)

Experiments:
[1] = target: MAP/microtubule affinity-regulating kinase 3 (Homo sapiens) (UniProt P27448); test: Inhibition of wild-type human full length MARK3 (M1 to L729 residues) expressed in bacterial expression system assessed as residual activity at 50 nM by Kinomescan method relative to control
[2] = target: Mitogen-activated protein kinase 4 (Homo sapiens) (UniProt P31152); test: Inhibition of wild-type human partial length ERK4 (M1 to L365 residues) expressed in bacterial expression system assessed as residual activity at 50 nM by Kinomescan method relative to control
[3] = target: Macrophage-stimulating protein receptor (Homo sapiens) (UniProt Q04912); test: Inhibition of wild-type human partial length RON (I1057 to L1363 residues) expressed in bacterial expression system assessed as residual activity at 50 nM by Kinomescan method relative to control
[4] = target: Serine/threonine-protein kinase PAK 5 (Homo sapiens) (UniProt Q9P286); test: Inhibition of wild-type human partial length PAK5 (Y400 to H719 residues) expressed in bacterial expression system assessed as residual activity at 50 nM by Kinomescan method relative to control
[5] = target: Tyrosine-protein kinase Mer (Homo sapiens) (UniProt Q12866); test: Inhibition of wild-type human partial length MER (R557 to L884 residues) expressed in bacterial expression system assessed as residual activity at 50 nM by Kinomescan method relative to control
[6] = target: Non-receptor tyrosine-protein kinase TYK2 (Homo sapiens, UniProt P29597); test: Inhibition of TYK2 (unknown origin) assessed as residual activity at 50 nM by KINOMEscan assay relative to control
[7] = target: AP2-associated protein kinase 1 (Homo sapiens) (UniProt Q2M2I8); test: Inhibition of human wild-type AAK1 (G25 to L333 residues) expressed in bacterial expression system assessed as residual activity at 50 nM by Kinomescan method relative to control
[8] = target: Rhodopsin kinase GRK1 (Homo sapiens) (UniProt Q15835); test: Inhibition of wild-type human full length RHOK (M1 to S563 residues) expressed in mammalian expression system assessed as residual activity at 50 nM by Kinomescan method relative to control
Chain of Rhodopsin kinase GRK1 (Homo sapiens) (Q15835 whole entry, the tested form may be a part): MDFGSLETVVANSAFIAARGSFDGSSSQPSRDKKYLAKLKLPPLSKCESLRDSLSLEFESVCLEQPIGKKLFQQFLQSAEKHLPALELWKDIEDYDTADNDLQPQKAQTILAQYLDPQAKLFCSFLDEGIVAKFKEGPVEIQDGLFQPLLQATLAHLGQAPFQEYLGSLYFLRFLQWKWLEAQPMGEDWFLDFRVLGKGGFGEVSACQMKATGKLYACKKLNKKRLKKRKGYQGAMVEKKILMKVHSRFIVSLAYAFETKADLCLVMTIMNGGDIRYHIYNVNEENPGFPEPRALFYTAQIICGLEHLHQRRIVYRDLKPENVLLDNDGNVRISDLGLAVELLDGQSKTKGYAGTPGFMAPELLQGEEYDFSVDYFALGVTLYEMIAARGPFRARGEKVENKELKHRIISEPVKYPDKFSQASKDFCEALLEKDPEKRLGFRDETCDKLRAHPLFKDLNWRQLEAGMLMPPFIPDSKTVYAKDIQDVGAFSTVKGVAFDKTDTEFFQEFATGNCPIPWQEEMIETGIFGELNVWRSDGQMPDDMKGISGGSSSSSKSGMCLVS

[9] = target: Serine/threonine-protein kinase 35 (Homo sapiens) (UniProt Q8TDR2); test: Inhibition of wild-type human partial length CLIK1 (G182 to A534 residues) expressed in bacterial expression system assessed as residual activity at 50 nM by Kinomescan method relative to control
[10] = target: Mitogen-activated protein kinase kinase kinase kinase 2 (Homo sapiens) (UniProt Q12851); test: Inhibition of human GCK (M1 to G318 residues) expressed in mammalian expression system assessed as residual activity at 50 nM by KINOMEscan assay relative to control
Chain of Mitogen-activated protein kinase kinase kinase kinase 2 (Homo sapiens) (Q12851 whole entry, the tested form may be a part): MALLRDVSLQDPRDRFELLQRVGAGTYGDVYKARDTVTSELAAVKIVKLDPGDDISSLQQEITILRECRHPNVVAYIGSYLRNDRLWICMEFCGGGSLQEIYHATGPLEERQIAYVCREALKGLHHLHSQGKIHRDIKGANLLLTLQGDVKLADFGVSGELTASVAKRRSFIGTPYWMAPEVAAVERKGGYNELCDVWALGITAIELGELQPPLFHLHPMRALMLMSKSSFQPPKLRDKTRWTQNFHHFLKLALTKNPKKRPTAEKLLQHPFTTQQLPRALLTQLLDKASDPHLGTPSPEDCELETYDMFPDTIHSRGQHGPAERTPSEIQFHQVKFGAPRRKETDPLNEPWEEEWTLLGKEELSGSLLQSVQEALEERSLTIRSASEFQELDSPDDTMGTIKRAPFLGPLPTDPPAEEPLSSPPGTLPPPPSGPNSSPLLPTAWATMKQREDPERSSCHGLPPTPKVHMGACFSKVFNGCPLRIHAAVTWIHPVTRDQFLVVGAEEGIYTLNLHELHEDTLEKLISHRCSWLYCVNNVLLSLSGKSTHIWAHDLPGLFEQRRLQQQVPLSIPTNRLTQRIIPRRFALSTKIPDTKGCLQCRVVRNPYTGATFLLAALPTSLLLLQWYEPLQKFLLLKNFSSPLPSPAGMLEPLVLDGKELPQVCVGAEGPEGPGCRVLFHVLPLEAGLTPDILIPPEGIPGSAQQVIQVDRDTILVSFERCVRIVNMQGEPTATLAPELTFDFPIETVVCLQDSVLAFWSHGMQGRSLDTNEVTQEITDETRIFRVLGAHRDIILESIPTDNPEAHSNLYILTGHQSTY

[11] = target: Citron Rho-interacting kinase (Homo sapiens) (UniProt O14578); test: Inhibition of wild-type human partial length CRIK (M68 to E432 residues) expressed in bacterial expression system assessed as residual activity at 50 nM by Kinomescan method relative to control
Chain of Citron Rho-interacting kinase (Homo sapiens) (O14578 whole entry, the tested form may be a part): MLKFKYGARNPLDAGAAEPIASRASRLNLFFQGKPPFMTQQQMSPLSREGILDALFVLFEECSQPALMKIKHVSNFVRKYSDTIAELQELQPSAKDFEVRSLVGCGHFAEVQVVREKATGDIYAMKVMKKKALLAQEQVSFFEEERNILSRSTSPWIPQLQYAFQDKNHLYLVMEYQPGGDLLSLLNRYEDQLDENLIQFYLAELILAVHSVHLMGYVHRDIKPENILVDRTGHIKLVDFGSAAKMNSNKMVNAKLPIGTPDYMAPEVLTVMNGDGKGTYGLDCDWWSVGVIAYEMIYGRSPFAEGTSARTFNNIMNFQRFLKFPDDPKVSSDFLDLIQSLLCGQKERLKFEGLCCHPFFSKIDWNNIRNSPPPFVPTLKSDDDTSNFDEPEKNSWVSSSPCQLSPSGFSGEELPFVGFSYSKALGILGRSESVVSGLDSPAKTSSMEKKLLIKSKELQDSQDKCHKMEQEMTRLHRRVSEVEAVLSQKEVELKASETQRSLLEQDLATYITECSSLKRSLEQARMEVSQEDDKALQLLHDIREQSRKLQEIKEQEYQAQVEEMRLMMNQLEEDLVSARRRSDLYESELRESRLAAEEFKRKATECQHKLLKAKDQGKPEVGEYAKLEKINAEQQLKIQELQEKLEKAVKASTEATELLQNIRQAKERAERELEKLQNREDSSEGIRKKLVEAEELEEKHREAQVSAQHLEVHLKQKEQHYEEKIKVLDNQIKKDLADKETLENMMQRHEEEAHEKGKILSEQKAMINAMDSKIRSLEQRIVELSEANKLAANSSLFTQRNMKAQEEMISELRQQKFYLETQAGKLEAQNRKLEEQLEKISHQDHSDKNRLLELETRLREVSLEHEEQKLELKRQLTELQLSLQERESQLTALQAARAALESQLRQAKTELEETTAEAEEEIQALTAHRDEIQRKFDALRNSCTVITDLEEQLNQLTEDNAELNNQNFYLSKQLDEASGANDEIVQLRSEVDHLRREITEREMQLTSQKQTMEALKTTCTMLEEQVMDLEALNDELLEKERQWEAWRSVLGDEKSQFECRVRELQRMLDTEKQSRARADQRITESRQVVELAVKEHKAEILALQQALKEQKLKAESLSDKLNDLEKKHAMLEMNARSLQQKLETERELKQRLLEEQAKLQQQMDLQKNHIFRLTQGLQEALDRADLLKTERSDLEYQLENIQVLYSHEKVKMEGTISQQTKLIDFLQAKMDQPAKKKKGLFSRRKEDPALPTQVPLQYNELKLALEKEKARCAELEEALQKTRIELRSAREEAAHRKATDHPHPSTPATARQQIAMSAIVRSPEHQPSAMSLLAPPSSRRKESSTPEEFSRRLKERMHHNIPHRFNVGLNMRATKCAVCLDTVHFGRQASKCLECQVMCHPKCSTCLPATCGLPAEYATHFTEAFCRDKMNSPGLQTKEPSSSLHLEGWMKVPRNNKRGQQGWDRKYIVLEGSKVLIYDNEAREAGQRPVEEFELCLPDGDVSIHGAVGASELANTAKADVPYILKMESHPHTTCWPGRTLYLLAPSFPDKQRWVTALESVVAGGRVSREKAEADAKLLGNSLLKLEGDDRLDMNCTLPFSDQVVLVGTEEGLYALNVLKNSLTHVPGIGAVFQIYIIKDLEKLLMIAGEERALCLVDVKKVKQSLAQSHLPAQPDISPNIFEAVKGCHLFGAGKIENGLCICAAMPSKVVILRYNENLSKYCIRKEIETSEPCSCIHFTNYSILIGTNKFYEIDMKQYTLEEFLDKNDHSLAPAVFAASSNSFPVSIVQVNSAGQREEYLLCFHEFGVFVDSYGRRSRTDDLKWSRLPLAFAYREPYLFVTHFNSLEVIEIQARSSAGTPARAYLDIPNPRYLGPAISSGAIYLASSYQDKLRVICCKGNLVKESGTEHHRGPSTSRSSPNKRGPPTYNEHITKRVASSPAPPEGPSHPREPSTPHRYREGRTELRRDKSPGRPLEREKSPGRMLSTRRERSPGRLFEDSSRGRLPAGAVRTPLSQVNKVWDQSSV

[12] = target: Serine/threonine-protein kinase mTOR (Homo sapiens) (UniProt P42345); test: Inhibition of wild-type human partial length MTOR (L1382 to W2549 residues) expressed in mammalian expression system assessed as residual activity at 50 nM by Kinomescan method relative to control
[13] = target: Serine/threonine-protein kinase 17A (Homo sapiens) (UniProt Q9UEE5); test: Inhibition of wild-type human partial length DRAK1 (R32 to E363 residues) expressed in bacterial expression system assessed as residual activity at 50 nM by Kinomescan method relative to control
[14] = target: Serine/threonine-protein kinase SIK1 (Homo sapiens) (UniProt P57059); test: Inhibition of wild-type human partial length SIK (M1 to Y304 residues) expressed in bacterial expression system assessed as residual activity at 50 nM by Kinomescan method relative to control
[15] = target: Serine/threonine-protein kinase SIK3 (Homo sapiens) (UniProt Q9Y2K2); test: Inhibition of wild-type human partial length QSK (A90 to L395 residues) expressed in mammalian expression system assessed as residual activity at 50 nM by Kinomescan method relative to control
[16] = target: Epithelial discoidin domain-containing receptor 1 (Homo sapiens) (UniProt Q08345); test: Inhibition of wild-type human partial length DDR1 (R565 to V876 residues) expressed in bacterial expression system assessed as residual activity at 50 nM by Kinomescan method relative to control
[17] = target: SRSF protein kinase 2 (Homo sapiens) (UniProt P78362); test: Inhibition of wild-type human full length SRPK2 (M1 to S686 residues) expressed in bacterial expression system assessed as residual activity at 50 nM by Kinomescan method relative to control
[18] = target: Interleukin-1 receptor-associated kinase 3 (Homo sapiens) (UniProt Q9Y616); test: Inhibition of wild-type human partial length IRAK3 (V147 to E596 residues) expressed in bacterial expression system assessed as residual activity at 50 nM by Kinomescan method relative to control
[19] = target: Dual serine/threonine and tyrosine protein kinase (Homo sapiens) (UniProt Q6XUX3); test: Inhibition of wild-type human full length RIPK5 (M1 to T929 residues) expressed in mammalian expression system assessed as residual activity at 50 nM by Kinomescan method relative to control
Chain of Dual serine/threonine and tyrosine protein kinase (Homo sapiens) (Q6XUX3 whole entry, the tested form may be a part): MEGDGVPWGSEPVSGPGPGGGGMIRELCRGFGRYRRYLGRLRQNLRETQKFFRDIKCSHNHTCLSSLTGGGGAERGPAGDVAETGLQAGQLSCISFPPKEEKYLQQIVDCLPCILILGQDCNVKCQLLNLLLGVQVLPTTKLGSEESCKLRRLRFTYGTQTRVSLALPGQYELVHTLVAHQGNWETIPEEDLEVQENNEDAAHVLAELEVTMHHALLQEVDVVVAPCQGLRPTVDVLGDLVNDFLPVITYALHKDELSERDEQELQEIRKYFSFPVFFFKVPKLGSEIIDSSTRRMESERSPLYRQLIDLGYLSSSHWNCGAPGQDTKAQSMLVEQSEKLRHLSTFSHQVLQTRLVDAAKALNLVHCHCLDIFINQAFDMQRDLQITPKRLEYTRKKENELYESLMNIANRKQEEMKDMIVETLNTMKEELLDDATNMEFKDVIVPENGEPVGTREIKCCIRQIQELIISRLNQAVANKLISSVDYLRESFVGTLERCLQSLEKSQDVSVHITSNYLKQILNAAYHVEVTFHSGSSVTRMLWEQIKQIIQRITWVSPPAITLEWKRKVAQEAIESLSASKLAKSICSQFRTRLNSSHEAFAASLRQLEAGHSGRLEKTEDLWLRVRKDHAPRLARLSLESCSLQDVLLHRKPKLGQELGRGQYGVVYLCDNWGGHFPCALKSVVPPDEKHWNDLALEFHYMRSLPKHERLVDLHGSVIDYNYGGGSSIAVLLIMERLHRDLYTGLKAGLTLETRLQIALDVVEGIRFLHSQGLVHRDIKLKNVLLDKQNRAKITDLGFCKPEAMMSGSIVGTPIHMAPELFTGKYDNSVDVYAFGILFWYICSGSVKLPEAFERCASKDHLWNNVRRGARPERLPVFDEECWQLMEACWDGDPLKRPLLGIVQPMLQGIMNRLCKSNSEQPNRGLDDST

[20] = target: Protein-tyrosine kinase 2-beta (Homo sapiens) (UniProt Q14289); test: Inhibition of wild-type human full length PYK2 (M1 to E967 residues) expressed in bacterial expression system assessed as residual activity at 50 nM by Kinomescan method relative to control
[21] = target: Tyrosine-protein kinase JAK3 (Homo sapiens) (UniProt P52333); test: Inhibition of human JAK3 D2 domain (I781 to S1124 residues) expressed in mammalian expression system assessed as residual activity at 50 nM by KINOMEscan assay relative to control
[22] = target: Myotonin-protein kinase (Homo sapiens) (UniProt Q09013); test: Inhibition of human DMPK1 (V47 to N415 residues) expressed in bacterial expression system assessed as residual activity at 50 nM by KINOMEscan assay relative to control
[23] = target: Serine/threonine-protein kinase tousled-like 1 (Homo sapiens) (UniProt Q9UKI8); test: Inhibition of wild-type human partial length TLK1 (K447 to A754 residues) expressed in bacterial expression system assessed as residual activity at 50 nM by Kinomescan method relative to control
Chain of Serine/threonine-protein kinase tousled-like 1 (Homo sapiens) (Q9UKI8 whole entry, the tested form may be a part): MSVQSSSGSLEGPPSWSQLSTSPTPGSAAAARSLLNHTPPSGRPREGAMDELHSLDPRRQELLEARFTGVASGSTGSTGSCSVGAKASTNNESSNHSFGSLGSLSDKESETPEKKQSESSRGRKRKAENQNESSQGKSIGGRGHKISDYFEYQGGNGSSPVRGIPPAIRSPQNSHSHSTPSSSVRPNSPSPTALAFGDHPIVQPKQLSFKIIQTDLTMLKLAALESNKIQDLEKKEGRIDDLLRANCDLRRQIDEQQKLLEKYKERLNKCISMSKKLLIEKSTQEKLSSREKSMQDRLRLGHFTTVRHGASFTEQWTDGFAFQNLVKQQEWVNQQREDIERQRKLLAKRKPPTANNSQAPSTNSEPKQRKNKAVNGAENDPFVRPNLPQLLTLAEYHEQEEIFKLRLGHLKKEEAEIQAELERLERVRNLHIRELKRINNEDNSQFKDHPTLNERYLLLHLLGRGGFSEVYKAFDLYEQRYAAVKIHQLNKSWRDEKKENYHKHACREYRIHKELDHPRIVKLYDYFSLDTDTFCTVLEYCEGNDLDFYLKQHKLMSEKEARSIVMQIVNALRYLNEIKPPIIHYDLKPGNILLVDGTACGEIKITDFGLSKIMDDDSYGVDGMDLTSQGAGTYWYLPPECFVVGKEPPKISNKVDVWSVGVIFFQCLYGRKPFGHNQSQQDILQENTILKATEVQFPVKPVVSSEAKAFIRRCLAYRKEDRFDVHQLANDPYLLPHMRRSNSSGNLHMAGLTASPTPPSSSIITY

[24] = target: MAP kinase-activated protein kinase 2 (Homo sapiens) (UniProt P49137); test: Inhibition of wild-type human partial length MAPKAPK2 (V48 to D345 residues) expressed in bacterial expression system assessed as residual activity at 50 nM by Kinomescan method relative to control
[25] = target: Receptor tyrosine-protein kinase erbB-2 (Homo sapiens) (UniProt P04626); test: Inhibition of wild-type human partial length ERBB2 (K646 to V1225 residues) expressed in mammalian expression system assessed as residual activity at 50 nM by Kinomescan method relative to control

For `COc1ccc(-c2cc3c(N[C@@H]4CC[C@](C)(N)C4(C)C)c(C(N)=O)cnn3c2)cn1`, the Activity [1] was 100%, the Activity [2] was 100% and the Activity [3] was 100%. It also gave an Activity [4] of 68%, an Activity [5] of 100% and an Activity [6] of 50%. It also gave an Activity [7] of 73%, an Activity [8] of 100% and an Activity [9] of 87%. It also gave an Activity [10] of 26%, an Activity [11] of 100% and an Activity [12] of 97%. It also gave an Activity [13] of 100%, an Activity [14] of 96% and an Activity [15] of 86%. For the same compound, the Activity [16] was 83%, the Activity [17] was 81% and the Activity [18] was 100%. It also gave an Activity [19] of 74%, an Activity [20] of 93% and an Activity [21] of 40%. The Activity [22] was 38%, the Activity [23] was 80% and the Activity [24] was 100%. It also gave an Activity [25] of 99%.

In the case of `CC1(C)[C@H](Nc2c(C(N)=O)cnn3cc(-c4ccccc4)cc23)CC[C@]1(C)N`, the Activity [1] is reported as 68%, the Activity [2] is reported as 100% and the Activity [3] is reported as 100%. The Activity [4] was 50%, the Activity [5] was 100% and the Activity [6] was 50%. For the same compound, the Activity [7] was 63%, the Activity [8] was 100% and the Activity [9] was 74%. It also gave an Activity [10] of 3.6%, an Activity [11] of 100% and an Activity [12] of 95%. For the same compound, the Activity [13] was 100%, the Activity [14] was 80% and the Activity [15] was 68%. It also gave an Activity [16] of 100%, an Activity [17] of 95% and an Activity [18] of 66%. For the same compound, the Activity [19] was 92%, the Activity [20] was 100% and the Activity [21] was 3.8%. The Activity [22] was 2.8%, the Activity [23] was 61% and the Activity [24] was 100%. The Activity [25] was 76%.
